The source made the active and inactive calls. The rule behind the calls is not given here.
How the values were obtained:
[1] = system: Burkholderia pseudomallei; test: Antibacterial activity against Burkholderia pseudomallei NTCC 10274 at 160 uM/ml after 24 hrs by kirby-bauer method; assay type: functional; conditions: NTCC 10274, 24 h, read-out: IZ
Escherichia coli [2] = test: Antibacterial activity against Escherichia coli ATCC 35218 at 80 uM/ml after 24 hrs by kirby-bauer method; assay type: functional; conditions: ATCC 35218, 24 h, read-out: IZ
Trichoderma viride [3] = test: Antifungal activity against Trichoderma viride MTCC 1107 at 160 uM/ml after 48 hrs by paper disc diffusion method; assay type: functional; conditions: MTCC 1107, 48 h, read-out: IZ
Aspergillus flavus [4] = test: Antifungal activity against Aspergillus flavus MTCC 1021 at 160 uM/ml after 48 hrs by paper disc diffusion method; assay type: functional
Aspergillus niger [5] = test: Antifungal activity against Aspergillus niger MTCC 1108 at 160 uM/ml after 48 hrs by paper disc diffusion method; assay type: functional
Aspergillus niger [6] = test: Antifungal activity against Aspergillus niger MTCC 1108 at 40 uM/ml after 48 hrs by paper disc diffusion method; assay type: functional
Curvularia lunata [7] = test: Antifungal activity against Curvularia lunata MTCC 581 at 160 uM/ml after 48 hrs by paper disc diffusion method; assay type: functional; conditions: MTCC 581, 48 h, read-out: IZ
Staphylococcus aureus [8] = test: Antibacterial activity against Staphylococcus aureus ATCC 11632 at 160 uM/ml after 24 hrs by kirby-bauer method; assay type: functional
[9] = system: Burkholderia pseudomallei; test: Antibacterial activity against Burkholderia pseudomallei NTCC 10274 at 80 uM/ml after 24 hrs by kirby-bauer method; assay type: functional; conditions: NTCC 10274, 24 h, read-out: IZ
Aspergillus niger [10] = test: Antifungal activity against Aspergillus niger MTCC 1108 at 80 uM/ml after 48 hrs by paper disc diffusion method; assay type: functional; conditions: MTCC 1108, 48 h, read-out: IZ
Trichoderma viride [11] = test: Antifungal activity against Trichoderma viride MTCC 1107 at 40 uM/ml after 48 hrs by paper disc diffusion method; assay type: functional; conditions: MTCC 1107, 48 h, read-out: IZ
Curvularia lunata [12] = test: Antifungal activity against Curvularia lunata MTCC 581 at 20 uM/ml after 48 hrs by paper disc diffusion method; assay type: functional
Pseudomonas aeruginosa [13] = test: Antibacterial activity against Pseudomonas aeruginosa ATCC 15499 at 160 uM/ml after 24 hrs by kirby-bauer method; assay type: functional; conditions: ATCC 15499, 24 h, read-out: IZ
Aspergillus flavus [14] = test: Antifungal activity against Aspergillus flavus MTCC 1021 at 80 uM/ml after 48 hrs by paper disc diffusion method; assay type: functional
[15] = system: Burkholderia pseudomallei; test: Antibacterial activity against Burkholderia pseudomallei NTCC 10274 at 40 uM/ml after 24 hrs by kirby-bauer method; assay type: functional
Aspergillus flavus [16] = test: Antifungal activity against Aspergillus flavus MTCC 1021 at 40 uM/ml after 48 hrs by paper disc diffusion method; assay type: functional
[17] = system: Burkholderia pseudomallei; test: Antibacterial activity against Burkholderia pseudomallei NTCC 10274 at 20 uM/ml after 24 hrs by kirby-bauer method; assay type: functional
QG-56 = test: Cytotoxicity against human QG56 cells after 48 hrs by MTT assay; assay type: functional, cell-based
Curvularia lunata [18] = test: Antifungal activity against Curvularia lunata MTCC 581 at 80 uM/ml after 48 hrs by paper disc diffusion method; assay type: functional; conditions: MTCC 581, 48 h, read-out: IZ
Trichoderma viride [19] = test: Antifungal activity against Trichoderma viride MTCC 1107 at 20 uM/ml after 48 hrs by paper disc diffusion method; assay type: functional; conditions: MTCC 1107, 48 h, read-out: IZ
Trichoderma viride [20] = test: Antifungal activity against Trichoderma viride MTCC 1107 at 80 uM/ml after 48 hrs by paper disc diffusion method; assay type: functional; conditions: MTCC 1107, 48 h, read-out: IZ
Pseudomonas aeruginosa [21] = test: Antibacterial activity against Pseudomonas aeruginosa ATCC 15499 at 80 uM/ml after 24 hrs by kirby-bauer method; assay type: functional; conditions: ATCC 15499, 24 h, read-out: IZ
Pseudomonas aeruginosa [22] = test: Antibacterial activity against Pseudomonas aeruginosa ATCC 15499 at 20 uM/ml after 24 hrs by kirby-bauer method; assay type: functional; conditions: ATCC 15499, 24 h, read-out: IZ
Curvularia lunata [23] = test: Antifungal activity against Curvularia lunata MTCC 581 at 40 uM/ml after 48 hrs by paper disc diffusion method; assay type: functional
Pseudomonas aeruginosa [24] = test: Antibacterial activity against Pseudomonas aeruginosa ATCC 15499 at 40 uM/ml after 24 hrs by kirby-bauer method; assay type: functional; conditions: ATCC 15499, 24 h, read-out: IZ
Escherichia coli [25] = test: Antibacterial activity against Escherichia coli ATCC 35218 at 40 uM/ml after 24 hrs by kirby-bauer method; assay type: functional; conditions: ATCC 35218, 24 h, read-out: IZ
Salmonella typhimurium [26] = test: Antibacterial activity against Salmonella typhimurium ATCC 23564 at 160 uM/ml after 24 hrs by kirby-bauer method; assay type: functional
Escherichia coli [27] = test: Antibacterial activity against Escherichia coli ATCC 35218 at 160 uM/ml after 24 hrs by kirby-bauer method; assay type: functional; conditions: ATCC 35218, 24 h, read-out: IZ
Escherichia coli [28] = test: Antibacterial activity against Escherichia coli ATCC 35218 at 20 uM/ml after 24 hrs by kirby-bauer method; assay type: functional
Aspergillus flavus [29] = test: Antifungal activity against Aspergillus flavus MTCC 1021 at 20 uM/ml after 48 hrs by paper disc diffusion method; assay type: functional
Aspergillus niger [30] = test: Antifungal activity against Aspergillus niger MTCC 1108 at 20 uM/ml after 48 hrs by paper disc diffusion method; assay type: functional
Salmonella typhimurium [31] = test: Antibacterial activity against Salmonella typhimurium ATCC 23564 at 40 uM/ml after 24 hrs by kirby-bauer method; assay type: functional; conditions: Salmonella enterica subsp. enterica serovar Typhimurium
Staphylococcus aureus [32] = test: Antibacterial activity against Staphylococcus aureus ATCC 11632 at 40 uM/ml after 24 hrs by kirby-bauer method; assay type: functional
Staphylococcus aureus [33] = test: Antibacterial activity against Staphylococcus aureus ATCC 11632 at 20 uM/ml after 24 hrs by kirby-bauer method; assay type: functional
Salmonella typhimurium [34] = test: Antibacterial activity against Salmonella typhimurium ATCC 23564 at 80 uM/ml after 24 hrs by kirby-bauer method; assay type: functional; conditions: Salmonella enterica subsp. enterica serovar Typhimurium
Staphylococcus aureus [35] = test: Antibacterial activity against Staphylococcus aureus ATCC 11632 at 80 uM/ml after 24 hrs by kirby-bauer method; assay type: functional; conditions: ATCC 11632, 24 h, read-out: IZ
Salmonella typhimurium [36] = test: Antibacterial activity against Salmonella typhimurium ATCC 23564 at 20 uM/ml after 24 hrs by kirby-bauer method; assay type: functional; conditions: Salmonella enterica subsp. enterica serovar Typhimurium

## COc1ccc(C2NC(=S)NC(/C=C/c3ccc(O)c(OC)c3)=C2C(=O)/C=C/c2ccc(O)c(OC)c2)cc1 (stereo unspecified)
[1]
  zone of inhibition at 160 µM: 24 mm
Escherichia coli [2]
  zone of inhibition at 80 µM: 14 mm
Trichoderma viride [3]
  zone of inhibition at 160 µM: 23 mm
Aspergillus flavus [4]; MTCC 1021, 48 h, read-out: IZ
  zone of inhibition at 160 µM: 9 mm
Aspergillus niger [5]; MTCC 1108, 48 h, read-out: IZ
  zone of inhibition at 160 µM: 11 mm
Aspergillus niger [6]
  inhibition zone (IZ): inactive
Curvularia lunata [7]
  zone of inhibition at 160 µM: 24 mm
Staphylococcus aureus [8]
  inhibition zone (IZ): inactive
[9]
  zone of inhibition at 80 µM: 21 mm
Aspergillus niger [10]
  zone of inhibition at 80 µM: 9 mm
Trichoderma viride [11]
  zone of inhibition: 18 mm
Curvularia lunata [12]; MTCC 581, 48 h, read-out: IZ
  zone of inhibition at 20 µM: 16 mm
Pseudomonas aeruginosa [13]
  zone of inhibition at 160 µM: 23 mm
Aspergillus flavus [14]
  inhibition zone (IZ): inactive
[15]; NTCC 10274, 24 h, read-out: IZ
  zone of inhibition at 40 µM: 19 mm
Aspergillus flavus [16]
  inhibition zone (IZ): inactive
[17]; NTCC 10274, 24 h, read-out: IZ
  zone of inhibition at 20 µM: 16 mm
QG-56
  IC50: 50 uM/ml
Curvularia lunata [18]
  zone of inhibition at 80 µM: 21 mm
HCT-116
  IC50: 50 uM/ml
Trichoderma viride [19]
  zone of inhibition at 20 µM: 17 mm
Trichoderma viride [20]
  zone of inhibition at 80 µM: 19 mm
Pseudomonas aeruginosa [21]
  zone of inhibition at 80 µM: 20 mm
Pseudomonas aeruginosa [22]
  zone of inhibition at 20 µM: 18 mm
Curvularia lunata [23]; MTCC 581, 48 h, read-out: IZ
  zone of inhibition at 40 µM: 18 mm
Pseudomonas aeruginosa [24]
  zone of inhibition at 40 µM: 19 mm
Escherichia coli [25]
  zone of inhibition at 40 µM: 9 mm
Salmonella typhimurium [26]; Salmonella enterica subsp. enterica serovar Typhimurium
  inhibition zone (IZ): inactive
Escherichia coli [27]
  zone of inhibition at 160 µM: 18 mm
HepG2
  IC50: 100 uM/ml
Escherichia coli [28]
  inhibition zone (IZ): inactive
Aspergillus flavus [29]
  inhibition zone (IZ): inactive
Aspergillus niger [30]
  inhibition zone (IZ): inactive

## COc1cc(/C=C/C(=O)C2=C(/C=C/c3ccc(O)c(OC)c3)NC(=O)NC2c2ccc([N+](=O)[O-])cc2)ccc1O (stereo unspecified)
[1]
  zone of inhibition at 160 µM: 12 mm
Escherichia coli [2]
  zone of inhibition at 80 µM: 16 mm
Trichoderma viride [3]
  zone of inhibition at 160 µM: 21 mm
Aspergillus flavus [4]
  inhibition zone (IZ): inactive
Aspergillus niger [5]
  inhibition zone (IZ): inactive
Curvularia lunata [7]
  zone of inhibition at 160 µM: 11 mm
Staphylococcus aureus [8]; ATCC 11632, 24 h, read-out: IZ
  zone of inhibition at 160 µM: 11 mm
[9]
  zone of inhibition at 80 µM: 10 mm
Salmonella typhimurium [31]
  inhibition zone (IZ): inactive
Trichoderma viride [11]
  zone of inhibition: 19 mm
Curvularia lunata [12]
  inhibition zone (IZ): inactive
Staphylococcus aureus [32]
  inhibition zone (IZ): inactive
Pseudomonas aeruginosa [13]
  zone of inhibition at 160 µM: 19 mm
Staphylococcus aureus [33]
  inhibition zone (IZ): inactive
[15]
  inhibition zone (IZ): inactive
[17]
  inhibition zone (IZ): inactive
QG-56
  IC50: 100 uM/ml
Curvularia lunata [18]
  zone of inhibition at 80 µM: 9 mm
HCT-116
  IC50: 50 uM/ml
Trichoderma viride [19]
  zone of inhibition at 20 µM: 17 mm
Trichoderma viride [20]
  zone of inhibition at 80 µM: 21 mm
Pseudomonas aeruginosa [21]
  zone of inhibition at 80 µM: 18 mm
Pseudomonas aeruginosa [22]
  zone of inhibition at 20 µM: 9 mm
Curvularia lunata [23]
  inhibition zone (IZ): inactive
Pseudomonas aeruginosa [24]
  zone of inhibition at 40 µM: 14 mm
Salmonella typhimurium [34]
  inhibition zone (IZ): inactive
Staphylococcus aureus [35]
  zone of inhibition at 80 µM: 10 mm
Escherichia coli [25]
  zone of inhibition at 40 µM: 15 mm
Salmonella typhimurium [26]; Salmonella enterica, ATCC 23564, 24 h, read-out: IZ
  zone of inhibition at 160 µM: 10 mm
Escherichia coli [27]
  zone of inhibition at 160 µM: 18 mm
HepG2
  IC50: 100 uM/ml
Escherichia coli [28]; ATCC 35218, 24 h, read-out: IZ
  zone of inhibition at 20 µM: 12 mm
Salmonella typhimurium [36]
  inhibition zone (IZ): inactive
